{
  "source": "patent US4474766A",
  "about": "“Anti-inflammatory/analgesic combination of cyclo-(N-methyl-Ala-Tyr-D-Trp-Lys-Val-Phe) and a selected non-steroidal anti-inflammatory drug (NSAID)” (Merck & Co., Inc., priority 1983, dated 1984)",
  "test_system": "NSAID-induced gastric ulcers",
  "experiment": "NSAID-Induced Ulcers in the Sprague-Dawley Rat (gastric ulcer assay)",
  "assay_type": "in vivo",
  "parameters": "Inhibition of Gastric Ulcers: unit not given here",
  "excerpt": "When a selected NSAID, for example, indomethacin, is combined with cyclo-(N-methyl-Ala-Tyr-D-Trp-Lys-Val-Phe) according to the present invention, the following results are obtained from the well-established gastric ulcer assay in the Sprague-Dawley male rat is described below:\nProtocol: NSAID-Induced Ulcers in the Sprague-Dawley Rat\nTwenty-four (24) hour fasted, male, Sprague-Dawley rats, 130 to 150 gms. each, are randomized into groups for assay. The animals are housed to wire-bottom cages without bedding and allowed free-access to water throughout the fasting and experimental periods. Ulcers are then induced by the peroral administration of NSAID at dose levels predetermined to provoke a similar number of ulcers within 4 hours of additional fasting*. Each NSAID is prepared in 0.5% methyl cellulose vehicle and given at a volume of 10 ml/kg rounded to the nearest 0.1 ml. Either 0.5% methylcellulose vehicle or compound A is co-administered perorally with the NSAID bringing the total volume to 20 ml/kg rounded to the nearest 0.2 ml.\n*For example: Indomethacin-20 mg/kg; Naproxen-50 mg/kg; Ibuprofen-100 mg/kg; Diclofenac-75 mg/kg.\nFour (4) hours after the administration of NSAID+vehicle, or NSAID+compound A, the animals are sacrificed by CO2 inhalation, the stomachs removed, excised along the inner curvature, washed carefully with cool tap water and placed in 0.9% saline. When all groups have been processed, the mucosal region of the stomachs are examined under a magnifying lens and scored according to the total number of lesions present. Group scores represent the mean score of animals in that group. P values are determined by Student's \"t\" test, comparing the ulcer scores of individual rats given NSAID+compound A to those dosed with NSAID+vehicle only.",
  "key": {"[1]": {"conditions": "Compound A 0.01 mg/kg p.o. co-administered with Diclofenac 75 mg/kg p.o., 4 h"}, "[2]": {"conditions": "Compound A 0.01 mg/kg p.o. co-administered with Ibuprofen 100 mg/kg p.o., 4 h"}, "[3]": {"conditions": "Compound A 0.01 mg/kg p.o. co-administered with Indomethacin 20 mg/kg p.o., 4 h"}, "[4]": {"conditions": "Compound A 0.01 mg/kg p.o. co-administered with Naproxen 50 mg/kg p.o., 4 h"}, "[5]": {"conditions": "Compound A 0.1 mg/kg p.o. co-administered with Diclofenac 75 mg/kg p.o., 4 h"}, "[6]": {"conditions": "Compound A 0.1 mg/kg p.o. co-administered with Ibuprofen 100 mg/kg p.o., 4 h"}, "[7]": {"conditions": "Compound A 0.1 mg/kg p.o. co-administered with Indomethacin 20 mg/kg p.o., 4 h"}, "[8]": {"conditions": "Compound A 0.1 mg/kg p.o. co-administered with Naproxen 50 mg/kg p.o., 4 h"}, "[9]": {"conditions": "Compound A 1.0 mg/kg p.o. co-administered with Diclofenac 75 mg/kg p.o., 4 h"}, "[10]": {"conditions": "Compound A 1.0 mg/kg p.o. co-administered with Ibuprofen 100 mg/kg p.o., 4 h"}, "[11]": {"conditions": "Compound A 1.0 mg/kg p.o. co-administered with Indomethacin 20 mg/kg p.o., 4 h"}, "[12]": {"conditions": "Compound A 1.0 mg/kg p.o. co-administered with Naproxen 50 mg/kg p.o., 4 h"}},
  "data": [
    {"compound": "CC(C)Cc1ccc(C(C)C(=O)O)cc1", "note": "(stereo not drawn) [Ibuprofen, ibuprofen, reference compound]", "values": [
      {"measurement": "Inhibition of Gastric Ulcers", "setting": "Ibuprofen 100 mg/kg p.o. + vehicle (control), 4 h", "value": 0}
    ]},
    {"compound": "O=C(O)Cc1ccccc1Nc1c(Cl)cccc1Cl", "note": "[Diclofenac, diclofenac, reference compound]", "values": [
      {"measurement": "Inhibition of Gastric Ulcers", "setting": "Diclofenac 75 mg/kg p.o. + vehicle (control), 4 h", "value": 0},
      {"measurement": "No. of Gastric Ulcers M ± S.E.M.", "setting": "Diclofenac 75 mg/kg p.o. + vehicle (control), fasted male rats, 4 h after dosing", "value": "14.0 ± 1.6"}
    ]},
    {"compound": "COc1ccc2cc([C@H](C)C(=O)O)ccc2c1", "note": "[Naproxen, naproxen, reference compound]", "values": [
      {"measurement": "Inhibition of Gastric Ulcers", "setting": "Naproxen 50 mg/kg p.o. + vehicle (control), 4 h", "value": 0}
    ]},
    {"compound": "cyclo-(N-methyl-Ala-Tyr-D-Trp-Lys-Val-Phe) [Compound A]", "values": [
      {"measurement": "Inhibition of Gastric Ulcers", "setting": "[1]", "value": 0},
      {"measurement": "No. of Gastric Ulcers M ± S.E.M.", "setting": "[1]", "value": "18.7 ± 2.0"},
      {"measurement": "Inhibition of Gastric Ulcers", "setting": "[2]", "value": 36.4},
      {"measurement": "No. of Gastric Ulcers M ± S.E.M.", "setting": "[2]", "value": "8.2 ± 1.0"},
      {"measurement": "Inhibition of Gastric Ulcers", "setting": "[3]", "value": 0},
      {"measurement": "No. of Gastric Ulcers M ± S.E.M.", "setting": "[3]", "value": "18.6 ± 4.4"},
      {"measurement": "Inhibition of Gastric Ulcers", "setting": "[4]", "value": 0},
      {"measurement": "No. of Gastric Ulcers M ± S.E.M.", "setting": "[4]", "value": "14.0 ± 3.0"},
      {"measurement": "Inhibition of Gastric Ulcers", "setting": "[5]", "value": 47.9},
      {"measurement": "No. of Gastric Ulcers M ± S.E.M.", "setting": "[5]", "value": "7.3 ± 2.3"},
      {"measurement": "Inhibition of Gastric Ulcers", "setting": "[6]", "value": 87.6},
      {"measurement": "No. of Gastric Ulcers M ± S.E.M.", "setting": "[6]", "value": "1.6 ± 0.6"},
      {"measurement": "Inhibition of Gastric Ulcers", "setting": "[7]", "value": 50.3},
      {"measurement": "No. of Gastric Ulcers M ± S.E.M.", "setting": "[7]", "value": "9.0 ± 1.9"},
      {"measurement": "Inhibition of Gastric Ulcers", "setting": "[8]", "value": 67.7},
      {"measurement": "No. of Gastric Ulcers M ± S.E.M.", "setting": "[8]", "value": "5.0 ± 2.5"},
      {"measurement": "Inhibition of Gastric Ulcers", "setting": "[9]", "value": 99.3},
      {"measurement": "No. of Gastric Ulcers M ± S.E.M.", "setting": "[9]", "value": "0.1 ± 0.1"},
      {"measurement": "Inhibition of Gastric Ulcers", "setting": "[10]", "value": 92.3},
      {"measurement": "No. of Gastric Ulcers M ± S.E.M.", "setting": "[10]", "value": "1.0 ± 0.5"},
      {"measurement": "Inhibition of Gastric Ulcers", "setting": "[11]", "value": 83.4},
      {"measurement": "No. of Gastric Ulcers M ± S.E.M.", "setting": "[11]", "value": "3.0 ± 1.3"},
      {"measurement": "Inhibition of Gastric Ulcers", "setting": "[12]", "value": 83.9},
      {"measurement": "No. of Gastric Ulcers M ± S.E.M.", "setting": "[12]", "value": "2.5 ± 1.4"}
    ]},
    {"compound": "COc1ccc2c(c1)c(CC(=O)O)c(C)n2C(=O)c1ccc(Cl)cc1", "note": "[Indomethacin, indomethacin, reference compound]", "values": [
      {"measurement": "Inhibition of Gastric Ulcers", "setting": "Indomethacin 20 mg/kg p.o. + vehicle (control), 4 h", "value": 0},
      {"measurement": "No. of Gastric Ulcers M ± S.E.M.", "setting": "Indomethacin 20 mg/kg p.o. + vehicle (control), fasted male rats, 4 h after dosing", "value": "18.1 ± 1.6"}
    ]}
  ]
}
